Reference: PubChem BioAssay (NCI)
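In this assay, cells in 96-well plates receive the compound at five concentrations for 48 hours. Endpoints are linearly interpolated between the surrounding concentrations. Abbreviation: GI50, concentration required for 50% inhibition of growth. TGI: concentration producing complete growth inhibition.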

Key:
Assay in all cases: DTP human tumour cell line panel, 48 h
[1] = system: NCI-H522 lung
[2] = system: TK-10 renal
[3] = system: HCT-15 colon
[4] = system: HOP-62 NSCLC
[5] = system: MALME-3M melanoma
[6] = system: HCT-116 colon
[7] = system: 786-0 renal
[8] = system: SK-OV-3 ovarian
[9] = system: UACC-257 melanoma
[10] = system: NCI-H226 lung
[11] = system: SNB-19 CNS
[12] = system: SF-539 CNS
[13] = system: KM12 colon
[14] = system: LOX IMVI melanoma
[15] = system: DU-145 prostate
[16] = system: MDA-N
[17] = system: NCI/ADR-RES ovarian
[18] = system: OVCAR-5 ovarian
[19] = system: UO-31 renal
[20] = system: EKVX NSCLC
[21] = system: SF-295 CNS
[22] = system: UACC-62 melanoma
[23] = system: PC-3 prostate
[24] = system: ACHN renal
[25] = system: HCC-2998 colon
[26] = system: SK-MEL-5 melanoma
[27] = system: A549 NSCLC
[28] = system: M14 melanoma
[29] = system: OVCAR-3 ovarian
[30] = system: MDA-MB-231 breast
[31] = system: NCI-H460 lung
[32] = system: COLO 205 colon
[33] = system: RXF 393 renal
[34] = system: MCF7 breast
[35] = system: IGROV1 ovarian
[36] = system: CAKI-1 renal
[37] = system: SF-268 CNS
[38] = system: NCI-H23 lung
[39] = system: BT-549 breast
[40] = system: U251 CNS
[41] = system: SK-MEL-28 melanoma
[42] = system: CCRF-CEM leukemia
[43] = system: HT29 colon
[44] = system: MDA-MB-435
[45] = system: SW-620 colon
[46] = system: T-47D breast
[47] = system: K-562 leukemia
[48] = system: OVCAR-4 ovarian
[49] = system: SK-MEL-2 melanoma
[50] = system: HOP-92 NSCLC
[51] = system: SR leukemia
[52] = system: OVCAR-8 ovarian
[53] = system: RPMI-8226 leukemia
[54] = system: HS 578T breast
[55] = system: MOLT-4 leukemia
[56] = system: HL-60(TB) leukemia
[57] = system: A498 renal
[58] = system: SN12C renal
[59] = system: SNB-75 CNS

C=CCn1c(-c2ccccc2)cs/c1=N\C(P(=O)(O)O)P(=O)(O)O
TGI [1]: > 100 µM
TGI [2]: > 100 µM
TGI [3]: > 100 µM
TGI [4]: > 100 µM
TGI [5]: > 100 µM
TGI [6]: > 100 µM
TGI [7]: > 100 µM
TGI [8]: > 100 µM
TGI [9]: > 100 µM
TGI [10]: > 100 µM
TGI [11]: > 100 µM
TGI [12]: > 100 µM
TGI [13]: > 100 µM
TGI [14]: > 100 µM
TGI [15]: > 100 µM
TGI [16]: > 100 µM
TGI [17]: > 100 µM
TGI [18]: > 100 µM
TGI [19]: > 100 µM
TGI [20]: > 100 µM
TGI [21]: > 100 µM
TGI [22]: > 100 µM
TGI [23]: > 100 µM
TGI [24]: > 100 µM
TGI [25]: > 100 µM
TGI [26]: > 100 µM
TGI [27]: > 100 µM
TGI [28]: > 100 µM
TGI [29]: > 100 µM
TGI [30]: > 100 µM
TGI [31]: > 100 µM
TGI [32]: > 100 µM
TGI [33]: > 100 µM
TGI [34]: > 100 µM
TGI [35]: > 100 µM
TGI [36]: > 100 µM
TGI [37]: > 100 µM
TGI [38]: > 100 µM
TGI [39]: > 100 µM

CC1(C)NCCC[C@]2(C)[C@H]3C=CC4=C5C[C@](C)(CO)CC[C@]5(C)CC[C@@]4(C)[C@]3(C)CC[C@@H]12
GI50 [1]: 2.38 µM
TGI [1]: 7.31 µM
GI50 [40]: 4.17 µM
TGI [40]: 15.9 µM
GI50 [2]: 2.66 µM
TGI [2]: 7.15 µM
GI50 [41]: 5.87 µM
TGI [41]: 18.4 µM
GI50 [3]: 4.21 µM
TGI [3]: 16.4 µM
GI50 [42]: 3.52 µM
TGI [42]: 14.6 µM
GI50 [4]: 2.3 µM
TGI [4]: 5.16 µM
GI50 [5]: 2.64 µM
TGI [5]: 8.01 µM
GI50 [43]: 3.25 µM
TGI [43]: 13.8 µM
GI50 [6]: 2.73 µM
TGI [6]: 10.6 µM
GI50 [44]: 3.76 µM
TGI [44]: 14 µM
GI50 [7]: 2.66 µM
TGI [7]: 8.59 µM
GI50 [8]: 14.5 µM
TGI [8]: 28.6 µM
GI50 [9]: 5.24 µM
TGI [9]: 17 µM
GI50 [45]: 5.76 µM
TGI [45]: 18.8 µM
GI50 [10]: 4 µM
TGI [10]: 16.9 µM
GI50 [46]: 5.38 µM
TGI [46]: 20.9 µM
GI50 [11]: 11.6 µM
TGI [11]: 25.3 µM
GI50 [12]: 2.69 µM
TGI [12]: 9.26 µM
GI50 [13]: 6.09 µM
TGI [13]: 20.3 µM
GI50 [14]: 2.49 µM
TGI [14]: 6.76 µM
GI50 [15]: 2.25 µM
TGI [15]: 5.02 µM
GI50 [47]: 3.18 µM
TGI [47]: 10.8 µM
GI50 [48]: 5.63 µM
TGI [48]: 20.8 µM
GI50 [17]: 2.02 µM
TGI [17]: 4.52 µM
GI50 [18]: 12.4 µM
TGI [18]: 25.3 µM
GI50 [19]: 3.59 µM
TGI [19]: 15.7 µM
GI50 [20]: 2.77 µM
TGI [20]: 8.27 µM
GI50 [21]: 2 µM
TGI [21]: 4.04 µM
GI50 [49]: 3.31 µM
TGI [49]: 12.2 µM
GI50 [50]: 3.1 µM
TGI [50]: 14.6 µM
GI50 [22]: 3.13 µM
TGI [22]: 10.9 µM
GI50 [23]: 3.05 µM
TGI [23]: 12.3 µM
GI50 [51]: 2.42 µM
TGI [51]: 7.17 µM
GI50 [24]: 2.93 µM
TGI [24]: 9.56 µM
GI50 [25]: 10.1 µM
TGI [25]: 23 µM
GI50 [52]: 2.56 µM
TGI [52]: 6.66 µM
GI50 [53]: 3.91 µM
TGI [53]: 14.9 µM
GI50 [26]: 2.14 µM
TGI [26]: 4.94 µM
GI50 [27]: 1.89 µM
TGI [27]: 3.71 µM
GI50 [28]: 3.91 µM
TGI [28]: 14.8 µM
GI50 [29]: 2.69 µM
TGI [29]: 7.06 µM
GI50 [30]: 14.5 µM
TGI [30]: 29.3 µM
GI50 [54]: 3.2 µM
TGI [54]: 13.2 µM
GI50 [31]: 4.17 µM
TGI [31]: 15.2 µM
GI50 [32]: 3.63 µM
TGI [32]: 13.9 µM
GI50 [33]: 1.84 µM
TGI [33]: 4.15 µM
GI50 [34]: 3.14 µM
TGI [34]: 14.5 µM
GI50 [35]: 4.08 µM
TGI [35]: 14.8 µM
GI50 [55]: 2.46 µM
TGI [55]: 6.8 µM
GI50 [36]: 3.7 µM
TGI [36]: 13.8 µM
GI50 [37]: 3.27 µM
TGI [37]: 11.6 µM
GI50 [56]: 2.63 µM
TGI [56]: 7.02 µM
GI50 [57]: 11.4 µM
TGI [57]: 24.5 µM
GI50 [38]: 3.15 µM
TGI [38]: 12.5 µM
GI50 [58]: 3.34 µM
TGI [58]: 12 µM
GI50 [39]: 3.46 µM
TGI [39]: 12.7 µM
GI50 [59]: 3.43 µM
TGI [59]: 14.8 µM
